In assay [1] the target is T1, Ubiquitin carboxyl-terminal hydrolase isozyme L1 (Homo sapiens, UniProt P09936).
T1 sequence (P09936 whole entry): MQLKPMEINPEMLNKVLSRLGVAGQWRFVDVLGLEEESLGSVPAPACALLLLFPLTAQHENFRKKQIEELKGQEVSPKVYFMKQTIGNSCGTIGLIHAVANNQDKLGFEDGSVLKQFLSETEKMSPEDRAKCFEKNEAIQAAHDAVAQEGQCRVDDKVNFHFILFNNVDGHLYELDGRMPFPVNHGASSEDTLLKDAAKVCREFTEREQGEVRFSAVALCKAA
The assay is described as follows: Inhibition of UCHL1 (unknown origin) using Ub-Rho-morpholine as substrate preincubated for 30 mins followed by substrate addition by fluorescence based assay.

Assay [2] addresses T2, Ubiquitin carboxyl-terminal hydrolase isozyme L3 (Homo sapiens, UniProt P15374).
T2 sequence (P15374 whole entry): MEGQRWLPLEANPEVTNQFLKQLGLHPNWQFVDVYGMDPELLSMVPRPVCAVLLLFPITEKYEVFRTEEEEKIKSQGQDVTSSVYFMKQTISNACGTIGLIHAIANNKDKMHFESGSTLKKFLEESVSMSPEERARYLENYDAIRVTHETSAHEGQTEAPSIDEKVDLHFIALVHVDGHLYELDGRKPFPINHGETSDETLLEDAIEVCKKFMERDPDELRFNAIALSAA
The assay is described as follows: Inhibition of recombinant human UCHL3 expressed in baculovirus infected Sf9 cells using ubiquitin-AMC as substrate preincubated for 30 mins followed by substrate addition by fluorescence spectrophotometric assay.

Assay [3] has as its target T2, Ubiquitin carboxyl-terminal hydrolase isozyme L3. The assay is described as follows: Inhibition of UCHL3 (unknown origin) using ubiquitin-AMC as substrate by fluorescence assay.
Assay [4] shares this target. The assay is described as follows: Inhibition of UCHL3 (unknown origin) incubated for 20 mins by fluorescence assay.
For assay [5] the target is unchanged. The assay is described as follows: Inhibition of UCHL3 (unknown origin).
The target in assay [6] is T1, Ubiquitin carboxyl-terminal hydrolase isozyme L1. The assay is described as follows: Inhibition of UCHL1 (unknown origin) using Ub-Rho as substrate preincubated for 30 mins followed by substrate addition.
Assay [7] concerns the target T2, Ubiquitin carboxyl-terminal hydrolase isozyme L3. The assay is described as follows: Inhibition of UCHL3 (unknown origin) using Ub-AMC as substrate preincubated for 30 mins followed by substrate addition by fluorescence assay.
Assay [8] concerns the target T3, Ubiquitin carboxyl-terminal hydrolase isozyme L3 (Homo sapiens) (UniProt P15374).
T3 sequence (whole entry): T2 sequence (P15374 whole entry)
The assay is described as follows: Inhibition of UCHL3 (unknown origin) using Ub-AMC as substrate at 0.1 uM preincubated for 60 mins followed by substrate addition by fluorescence assay relative to control.

Assay [9] has as its target T2, Ubiquitin carboxyl-terminal hydrolase isozyme L3. The assay is described as follows: Inhibition of UCHL3 (unknown origin) assessed as reduction in RAD51 deubiquitination incubated for 4 hrs.

One may read the IC50 as the midpoint of a concentration-inhibition curve. `N#CN1CCC(C(=O)Nc2ncc(N3CCOCC3)s2)C1` (stereo not given): in assay [1], the half-inhibitory concentration (IC50) came out at 0.23 µM.
Consider `CCCCc1ccc(-c2nnc(C)n2-c2ccc(C(C)C)cc2)cc1`, for which the IC50 in [2] came to 47 µM.
In [3], `O=C1c2ccccc2C(=O)c2oc(-c3ccc(F)cc3)nc21` had a 50% inhibitory concentration (IC50) of 2.16 µM.
The compound `COC(=O)c1cc(-c2ccc(OC)c(OC)c2O)c(N)c(-c2ccc3c(n2)C(=O)C(N)=C(OC)C3=O)n1` gave an IC50 in assay [4] of 5 µM.
In [5], `CC(=O)O/N=C1/C(=O)N(Cc2cc(Cl)ccc2Cl)c2ccc(Cl)cc21` gave an IC50 of 25 µM.
As for `C#CCCn1cc(-c2cccc3c2ccn3C(=O)C2CCCN2C#N)c(C(F)(F)F)n1` (stereo not given), 6.4 µM corresponded to half-maximal inhibition in [6] (IC50).
In turn, `CCCCC[C@H](O)/C=C/[C@H]1C(=O)C=C[C@@H]1C/C=C\CCCC(=O)O` registered an IC50 in assay [7] of 10 µM.
In general, inhibition refers to the drop in the measured response relative to a control, in per cent. The low end stands for little suppression, the high end for strong suppression. Compound `O=C1C(Cc2ccc([N+](=O)[O-])cc2)CNCC1Cc1ccc([N+](=O)[O-])cc1` (stereo not given) returned an inhibition in assay [8] of 60%.
As for `CCCCCCCCCCCCCCCCCCOP(=O)([O-])OC1CC[N+](C)(C)CC1` [PERIFOSINE], the IC50 in assay [9] worked out at 0.05 µM.
`N#CN1CCCC1C(=O)n1ccc2c(-c3cn[nH]c3C(F)(F)F)cccc21` (stereo not given) yielded an IC50 in assay [6] of 0.67 µM.

These data come from ChEMBL document CHEMBL5126510, “UCH-L3 structure and function: Insights about a promising drug target” (Eur J Med Chem, 2022).
